The target of one experiment is T1, hamster SUR1 (Cricetus cricetus, UniProt Q09427).
T1 construct: expressed in transfected cells; host or cells: COS-1 cells, transient (pcDNA vector)
Put plainly: In vitro binding affinity to rodent KATP channels: SUR1 ([3H]glibenclamide displacement, COS cell membranes). The settings on record: hamster SUR1 in COS cell membranes; read-out: Affinity to SUR 1 (converted). The procedure: 1. In Vitro Binding Affinity of the Test Compounds to Rodent KATP Channels
Competitive binding experiments were performed to characterize the affinity of the test compounds for the binding sites for sulfonylureas and KATP channel openers (KCOS) on hamster SUR1. To assess the affinity for the sulfonylurea site, membranes from COS-cells transiently expressing hamster SUR1 were incubated in the presence of [^3H]glibenclamide with increasing concentrations of test compounds. […] For each test compound four displacement curves were measured (+/−MgATP from the human and hamster isoform). Per curve 9-15 distinct concentrations were tested covering the relevant range. All measurements were repeated at least 5 times in independent experiments.
(§1) [^3H]glibenclamide (specific activity 51 Ci mmol^−1) was obtained from NEN (Dreieich, Germany). Where needed, stock solutions were prepared in dimethylsulfoxide with a final solvent concentration in the media below 1%.
(§2) SUR- or Kir6.x isoforms were used either subcloned in the pcDNA (hamster SUR1, mouse Kir6.2) or pCMV vector (rat SUR2A, SUR2B).
(§3) For transfection, the cells were incubated 4 hours in a Tris-buffered salt solution containing DNA (5-10 μg/ml) plus DEAE-dextran (1 mg/ml), 2 min in HEPES-buffered salt solution plus dimethylsulfoxide (10%) and 4 hours in DMEM-HG plus chloroquine (100 μM). Cells were then returned to DMEM-HG plus 10% FCS. […] For binding experiments, resuspended membranes (final protein concentration 5-50 μg/ml) were incubated in “Tris-buffer” (50 mM, pH 7.4) containing either [^3H]glibenclamide (final concentration 0.3 nM or 3 nM and nonspecific binding defined by 100 nM or 1 μM glibenclamide for SUR1 or SUR2Y1205S-isoforms, respectively) or [^3H]P1075 (final concentration 3 nM, nonspecific binding defined by 100 μM pinacidil) and increasing concentrations of the test compounds. The free Mg^2+ concentration were kept close to 0.7 mM. […] Incubations were carried out for 1 h at room temperature and were terminated by rapid filtration through Whatman GF/B filters.
(§4) The inhibition constant (Ki value) of the test substances was calculated from the respective IC50 value, and was stated as the negative logarithmic value thereof (pKi).

For a further experiment, the target named is rat SUR2A (Rattus norvegicus, UniProt Q63563). Put plainly: In vitro binding affinity to rodent KATP channels: SUR2A ([3H]P1075 / [3H]glibenclamide displacement, COS cell membranes). As for the experimental part: Therefore, two strategies can be used to detect binding to the sulfonylurea site on SUR2A.
Sequence of rat SUR2A (Q63563 whole entry, canonical isoform): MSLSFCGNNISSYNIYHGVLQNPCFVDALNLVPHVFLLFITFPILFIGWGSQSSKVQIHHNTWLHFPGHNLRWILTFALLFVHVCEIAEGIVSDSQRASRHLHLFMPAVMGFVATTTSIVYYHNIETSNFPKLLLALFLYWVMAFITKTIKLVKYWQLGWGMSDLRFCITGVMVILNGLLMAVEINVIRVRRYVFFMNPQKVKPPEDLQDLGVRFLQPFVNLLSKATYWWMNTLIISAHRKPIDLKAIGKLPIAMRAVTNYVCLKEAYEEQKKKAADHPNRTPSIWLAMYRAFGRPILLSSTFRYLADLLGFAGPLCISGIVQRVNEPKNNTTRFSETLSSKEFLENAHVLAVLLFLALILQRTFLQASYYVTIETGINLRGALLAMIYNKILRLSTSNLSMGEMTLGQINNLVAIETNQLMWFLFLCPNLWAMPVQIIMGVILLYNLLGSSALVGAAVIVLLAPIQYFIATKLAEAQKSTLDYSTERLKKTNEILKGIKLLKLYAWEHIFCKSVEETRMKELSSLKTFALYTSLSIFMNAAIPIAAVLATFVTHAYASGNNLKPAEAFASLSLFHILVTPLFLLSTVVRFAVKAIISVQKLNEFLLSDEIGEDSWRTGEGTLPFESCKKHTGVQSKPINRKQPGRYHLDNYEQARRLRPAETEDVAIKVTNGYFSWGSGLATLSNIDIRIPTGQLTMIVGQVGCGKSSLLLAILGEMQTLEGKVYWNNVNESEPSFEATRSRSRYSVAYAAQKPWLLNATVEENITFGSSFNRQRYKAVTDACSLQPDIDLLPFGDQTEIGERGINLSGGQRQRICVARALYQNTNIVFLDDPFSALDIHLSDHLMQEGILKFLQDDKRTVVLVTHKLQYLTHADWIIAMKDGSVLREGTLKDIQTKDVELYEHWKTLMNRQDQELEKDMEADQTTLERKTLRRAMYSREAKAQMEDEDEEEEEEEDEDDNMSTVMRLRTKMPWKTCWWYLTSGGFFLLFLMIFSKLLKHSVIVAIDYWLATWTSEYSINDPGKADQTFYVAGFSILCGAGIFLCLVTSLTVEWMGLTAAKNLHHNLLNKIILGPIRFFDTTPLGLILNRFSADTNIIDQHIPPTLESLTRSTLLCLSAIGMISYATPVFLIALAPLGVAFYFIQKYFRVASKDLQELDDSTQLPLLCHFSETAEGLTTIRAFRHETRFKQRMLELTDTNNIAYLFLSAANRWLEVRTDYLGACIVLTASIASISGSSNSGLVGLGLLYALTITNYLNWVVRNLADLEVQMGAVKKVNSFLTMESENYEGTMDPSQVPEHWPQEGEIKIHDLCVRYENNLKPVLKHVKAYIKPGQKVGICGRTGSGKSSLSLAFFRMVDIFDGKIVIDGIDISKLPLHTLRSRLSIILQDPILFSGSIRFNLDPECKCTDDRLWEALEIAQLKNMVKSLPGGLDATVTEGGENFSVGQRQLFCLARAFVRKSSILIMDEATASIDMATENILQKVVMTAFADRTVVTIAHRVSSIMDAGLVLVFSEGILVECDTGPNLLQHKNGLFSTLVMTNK
Membranes from COS-cells transiently expressing rat SUR2A were incubated in the presence of the radioligands with increasing concentrations of test compounds as described above. […] For each test compound four displacement curves were measured (displacement of [^3H]P1075 from the rat isoform of the wild type receptor and displacement of [^3H]glibenclamide from the rat isoform of SUR2AY1205S). Per curve 9-15 distinct concentrations were tested covering the relevant range. All measurements were repeated at least 5 times in independent experiments.
as §1, §2, §3, §4

[1] abbreviates: rat SUR2A in COS cell membranes.

Read-outs that look alike come from different tables or passages of the source.

T1 sequence (Q09427 whole entry): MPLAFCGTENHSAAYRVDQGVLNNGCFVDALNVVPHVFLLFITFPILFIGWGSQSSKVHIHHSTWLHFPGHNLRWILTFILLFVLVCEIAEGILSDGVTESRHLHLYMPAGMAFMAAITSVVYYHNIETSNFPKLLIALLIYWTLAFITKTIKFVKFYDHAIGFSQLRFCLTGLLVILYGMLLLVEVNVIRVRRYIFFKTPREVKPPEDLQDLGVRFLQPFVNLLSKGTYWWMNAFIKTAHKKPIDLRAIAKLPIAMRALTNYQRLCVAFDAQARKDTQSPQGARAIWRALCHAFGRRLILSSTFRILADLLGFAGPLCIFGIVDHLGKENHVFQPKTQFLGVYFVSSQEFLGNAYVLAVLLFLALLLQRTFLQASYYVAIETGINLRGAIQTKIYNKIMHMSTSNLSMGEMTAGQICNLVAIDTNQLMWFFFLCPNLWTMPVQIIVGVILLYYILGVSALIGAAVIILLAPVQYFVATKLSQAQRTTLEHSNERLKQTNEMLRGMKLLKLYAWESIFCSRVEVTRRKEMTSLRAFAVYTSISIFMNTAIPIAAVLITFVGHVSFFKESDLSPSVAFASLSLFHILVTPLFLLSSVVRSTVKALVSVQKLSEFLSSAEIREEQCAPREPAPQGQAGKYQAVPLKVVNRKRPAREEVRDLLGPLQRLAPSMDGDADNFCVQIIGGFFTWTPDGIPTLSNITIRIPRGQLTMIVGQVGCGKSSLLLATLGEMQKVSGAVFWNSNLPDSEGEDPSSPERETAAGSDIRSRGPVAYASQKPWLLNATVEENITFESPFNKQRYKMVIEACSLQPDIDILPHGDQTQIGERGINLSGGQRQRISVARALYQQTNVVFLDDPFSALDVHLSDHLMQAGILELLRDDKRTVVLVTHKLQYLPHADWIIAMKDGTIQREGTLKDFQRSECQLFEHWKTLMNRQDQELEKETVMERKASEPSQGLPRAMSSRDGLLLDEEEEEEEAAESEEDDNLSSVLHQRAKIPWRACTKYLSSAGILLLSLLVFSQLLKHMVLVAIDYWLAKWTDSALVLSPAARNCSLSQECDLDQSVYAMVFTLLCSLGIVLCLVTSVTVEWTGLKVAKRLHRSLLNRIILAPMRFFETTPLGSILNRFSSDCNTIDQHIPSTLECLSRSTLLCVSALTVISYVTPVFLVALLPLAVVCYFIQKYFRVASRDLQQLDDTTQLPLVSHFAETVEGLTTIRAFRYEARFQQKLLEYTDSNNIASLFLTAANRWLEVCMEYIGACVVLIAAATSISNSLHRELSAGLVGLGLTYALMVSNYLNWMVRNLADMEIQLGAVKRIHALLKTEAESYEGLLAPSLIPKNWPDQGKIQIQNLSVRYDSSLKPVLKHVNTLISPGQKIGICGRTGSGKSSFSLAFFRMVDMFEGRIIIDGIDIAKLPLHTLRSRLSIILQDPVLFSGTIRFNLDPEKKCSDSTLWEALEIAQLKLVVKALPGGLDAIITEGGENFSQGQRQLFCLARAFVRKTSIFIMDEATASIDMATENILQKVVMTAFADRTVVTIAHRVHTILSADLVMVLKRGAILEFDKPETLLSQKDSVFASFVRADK

With `O=S(=O)(N=C(NCC1CC1)N1CC(c2ccccc2)C(c2ccc(Cl)cc2)=N1)N1CCOCC1` (stereo not shown), at hamster SUR1, the Ki was 1 µM. The same molecule showed a pKi at rat SUR2A of 5.7.
The matching figures for `CN(C)S(=O)(=O)N=C(NCCF)N1CC(c2ccccc2)C(c2ccc(Cl)cc2)=N1` (stereo not shown) [N,N-Dimethylamino-1-sulfonic acid [3-(4-chloro-phenyl)-4-phenyl-4,5-dihydro-pyrazol-1-yl]-(2-fluoro-ethylamino)-methyleneamide]: 50.1 µM and 4.0.
With `CCc1c(C(=O)NN2CCCCC2)nc(-c2ccc(Cl)cc2Cl)n1-c1ccc(Br)cc1` [1-(4-Bromo-phenyl)-2-(2,4-dichloro-phenyl)-5-ethyl-1H-imidazol-4-carboxylic acid piperidin-1-ylamide], the Ki at hamster SUR1 is 3.98 µM. Besides, the pKi on rat SUR2A is on record as 5.3.
Regarding `Cc1c(C(=O)NC2CCC(O)CC2)nc(-c2ccc(Cl)cc2Cl)n1-c1ccc(Cl)cc1` (stereo not shown) [1-(4-Chloro-phenyl)-2-(2,4-dichloro-phenyl)-5-methyl-1H-imidazole-4-carboxylic acid (4-hydroxy-cyclo-hexyl)-amide], the Ki at hamster SUR1 is 100 µM. The molecule also had a negative logarithm of the Ki (pKi) at rat SUR2A of 5.0.
As to `C[S+]([O-])c1c(C(=O)NN2CCCCC2)nc(-c2ccc(Cl)cc2Cl)n1-c1ccc(Cl)cc1` (stereo not shown) [1-(4-Chloro-phenyl)-2-(2,4-dichloro-phenyl)-5-methanesulfinyl-1H-imidazole-4-carboxylic acid piperidin-1-ylamide], the Ki at hamster SUR1 is 100 µM. Further, the negative-log Ki (pKi) at rat SUR2A (setting [1]) was 4.9.
In the case of `CON(C)C(=NS(=O)(=O)c1ccc(Cl)cc1)N1CC(c2ccccc2)C(c2ccc(Cl)cc2)=N1` (stereo not shown) [4-Chloro-N-[[3-(4-chloro-phenyl)-4-phenyl-4,5-dihydro-pyrazol-1-yl]-(methoxy-methyl-amino)-methylene]-benzenesulfonamide], at hamster SUR1, the Ki is 1.26 µM. This molecule had a negative-log Ki (pKi) on rat SUR2A of 5.9.
The matching figures for `Cc1c(NC(=O)N2CCCCC2)nn(-c2ccc(Cl)cc2Cl)c1-c1ccc(Cl)cc1` [Piperidine-1-carboxylic acid [5-(4-chloro-phenyl)-1-(2,4-dichloro-phenyl)-4-methyl-1H-pyrazol-3-yl]-amide]: 20 µM and 4.7.
The matching figures for `NC(=O)C1CCN(C(=NS(=O)(=O)c2ccc(Cl)cc2)N2CC(c3ccccc3)C(c3ccc(Cl)cc3)=N2)CC1` (stereo not shown) [1-{(4-Chloro-benzene-sulfonylimino)-[3-(4-chloro-phenyl)-4-phenyl-4,5-dihydro-pyrazol-1-yl]-methyl}-piperidine-4-carboxylic acid amide]: 3.16 µM and 5.2.
The matching figures for `O=C(NN1CCCCC1)c1nc(-c2ccc(Cl)cc2Cl)n(-c2ccc(Cl)cc2)n1` [1-(4-Chloro-phenyl)-5-(2,4-dichloro-phenyl)-1H-[1,2,4]triazole-3-carboxylic acid piperidin-1-yl-amide]: 10 µM and 5.0.
On to `O=C(NN1CCCCC1)c1nc(-c2ccc(Cl)cc2Cl)n(-c2ccc(Cl)cc2)c1CN1CCCC1` [1-(4-Chloro-phenyl)-2-(2,4-dichloro-phenyl)-5-pyrrolidin-1-ylmethyl-1H-imidazole-4-carboxylic acid piperidin-1-ylamide], for which the Ki on hamster SUR1 was 100 µM. The molecule also yielded a pKi at rat SUR2A (setting [1]) of 4.6.
As for `CCCCCNC(=O)c1nc(-c2ccc(Cl)cc2Cl)n(-c2ccc(Br)cc2)c1CC` [1-(4-Bromo-phenyl)-2-(2,4-dichloro-phenyl)-5-ethyl-1H-imidazole-4-carboxylic acid pentylamide], the Ki at hamster SUR1 is 0.794 µM. On rat SUR2A (setting [1]), this molecule showed a pKi of 5.6.
On to `CN/C(=N\S(=O)(=O)N1CCCCCC1)N1CC(c2ccccc2)C(c2ccc(Cl)cc2)=N1` (stereo not shown) [Azepane-1-sulfonic acid [3-(4-chloro-phenyl)-4-phenyl-4,5-dihydro-pyrazol-1-yl]-methylamino-methyleneamide], for which, at hamster SUR1, the Ki is 25.1 µM. Also, the pKi at rat SUR2A is reported as 4.9.
The matching figures for `O=S(=O)(N=C(NCC1CCNCC1)N1CC(c2ccccc2)C(c2ccc(Cl)cc2)=N1)c1ccc(Cl)cc1` (stereo not shown): 0.631 µM and 4.9.
Take `CNC(=NS(=O)(=O)N1CCOCC1)C1=NN(c2ccc(Cl)cc2Cl)C(c2ccccc2)C1` (stereo not shown) [Morpholine-4-sulfonic acid [1-(2,4-dichloro-phenyl)-5-phenyl-4,5-dihydro-1H-pyrazol-3-yl]-methylamino-methyleneamide]: the Ki on hamster SUR1 is 5.01 µM. On rat SUR2A, this molecule gave a pKi of 5.0.
Consider `CCN(CC)S(=O)(=O)N=C(NC)N1CC(O)(c2ccccc2)C(c2ccc(Cl)cc2)=N1` (stereo not shown) [N,N-Diethylamino-1-sulfonic acid [3-(4-chloro-phenyl)-4-hydroxy-4-phenyl-4,5-dihydro-pyrazol-1-yl]-methylamino-methyleneamide], for which the Ki on hamster SUR1 was 100 µM. Moreover, the negative-log Ki (pKi) on rat SUR2A is reported as 5.9.
As for `CNC(=NS(=O)(=O)c1ccc(C(F)(F)F)cc1)N1CC(c2ccccc2)C(c2ccc(Cl)cc2)=N1` (stereo not shown) [N-{[3-(4-Chloro-phenyl)-4-phenyl-4,5-dihydro-pyrazol-1-yl]-methylamino-methylene}-4-trifluoromethyl-benzene-sulfonamide], the Ki at hamster SUR1 is 0.501 µM. Further, the pKi on rat SUR2A was 4.2.
The matching figures for `CON/C(=N\S(=O)(=O)c1ccc(Cl)cc1)N1C[C@H](c2cccc(F)c2)C(c2ccc(Cl)cc2)=N1` [4-Chloro-N-{[3-(4-chloro-phenyl)-4-(3-fluoro-phenyl)-4,5-dihydro-pyrazol-1-yl]-methoxyamino-methylene}-benzenesulfonamide]: 2.51 µM and 6.1.
The matching figures for `CNC(=NS(=O)(=O)c1ccc(Cl)cc1)N1CC(c2cccnc2)C(c2ccc(Cl)cc2)=N1` (stereo not shown): 2.51 µM and 5.4.
The matching figures for `CS(=O)(=O)c1c(C(=O)NN2CCCCC2)nc(-c2ccc(Cl)cc2Cl)n1-c1ccc(Cl)cc1` [1-(4-Chloro-phenyl)-2-(2,4-dichloro-phenyl)-5-methanesulfonyl-1H-imidazole-4-carboxylic acid piperidin-1-ylamide]: 100 µM and 5.0.
Turning to `O=S(=O)(N=C(NCCF)N1CC(c2ccccc2)C(c2ccc(Cl)cc2)=N1)c1ccc(Cl)cc1` (stereo not shown) [drawing 45, 4-Chloro-N-[[3-(4-chloro-phenyl)-4-phenyl-4,5-dihydro-pyrazol-1-yl]-(2-fluoro-ethylamino)-methylene]-benzenesulfonamide], the Ki on hamster SUR1 was 25.1 µM. The negative logarithm of the Ki (pKi) at rat SUR2A was found to be 4.6.
The matching figures for `CCNCCN/C(=N\S(=O)(=O)c1ccc(Cl)cc1)N1CC(c2ccccc2)C(c2ccc(Cl)cc2)=N1` (stereo not shown) [4-Chloro-N-[[3-(4-chloro-phenyl)-4-phenyl-4,5-dihydro-pyrazol-1-yl]-(2-ethylamino-ethylamino)-methylene]-Benzenesulfonamide]: 7.94 µM and 5.3.
The matching figures for `O=C(NN1CCCCC1)c1nc(-c2ccc(Cl)cc2Cl)n(-c2ccc(Cl)cc2)c1CC(F)(F)F` [1-(4-Chloro-phenyl)-2-(2,4-dichloro-phenyl)-5-(2,2,2-trifluoro-ethyl)-1H-imidazole-4-carboxylic acid piperidin-1-ylamide]: 15.8 µM and 5.7.
In the case of `CCCCC(C)(O)c1nc(-c2ccc(Cl)cc2Cl)n(-c2ccc(Cl)cc2)c1C` (stereo not shown) [2-[1-(4-Chloro-phenyl)-2-(2,4-dichloro-phenyl)-5-methyl-1H-imidazol-4-yl]-hexan-2-ol], the Ki at hamster SUR1 is 1.58 µM. At rat SUR2A, this molecule displayed a pKi of 5.3.

Broadly, the pKi is the Ki on a negative log10 scale, so that one unit is a factor of ten.

Values taken from US20070254863A1 (priority 2006, published 2007).
